From article PMC3387161, “Small Molecules Targeted to a Non-Catalytic “RVxF” Binding Site of Protein Phosphatase-1 Inhibit HIV-1” (PLoS ONE, 2012)
“And” between values parts separate entries of the source, which are not always exact repeats. Equal entries are not always repeated.

Experiments:
[1] = test system: HIV-1 LTR-Lac Z reporter in 293T cells; experiment: HIV-1 LTR-directed transcription in 293T cells transfected with Tat vector and HIV-1 LTR-LacZ reporter; type: cell-based; conditions: Human immunodeficiency virus 1, HEK-293T, read-out: IC50 for inhibition of HIV-1 LTR-directed transcription in 293T cells
[2] = molecular target: T1, recombinant PP1α (Oryctolagus cuniculus, UniProt P62139); experiment: Malachite green dephosphorylation of RVxF-containing hybrid pRb peptides by PP1α; type: biochemical
T1 construct: purchased New England Biolabs, Ipswich, MA
T1 sequence (P62139 whole entry): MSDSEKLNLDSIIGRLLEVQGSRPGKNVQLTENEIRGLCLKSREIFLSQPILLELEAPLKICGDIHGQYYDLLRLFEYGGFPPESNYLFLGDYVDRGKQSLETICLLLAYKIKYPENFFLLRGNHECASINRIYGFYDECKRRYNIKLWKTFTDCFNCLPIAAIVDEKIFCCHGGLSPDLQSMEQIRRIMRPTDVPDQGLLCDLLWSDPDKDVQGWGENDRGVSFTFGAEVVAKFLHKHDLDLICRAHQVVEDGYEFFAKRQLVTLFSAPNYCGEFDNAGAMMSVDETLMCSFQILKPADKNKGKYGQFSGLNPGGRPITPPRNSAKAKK
From the text: Here, we analyzed the effect of 1H4 on the binding of the Tat RVxF sequence to PP1 using hybrid PP1 substrates containing a substrate phosphopeptide linked to RVxF-containing sequences derived from Tat or NIPP1. As the substrate phosphopeptide, we used a retinoblastoma protein-derived HIPR(pS)[…] peptide (pRb) that is efficiently dephosphorylated by PP1 but not by the enzymatically-related PP2A [13]. The pRb peptide was linked to an extended RVxF-containing sequence derived from Tat ([…]) (pRb-Tat peptide) or the central domain of NIPP1 ([…]). To visualize the interaction between pRb-Tat and PP1 we built a computational model of the pRb-Tat peptide with PP1 complex (described in Materials and Methods). Based on this model, the pRb-Tat peptide is able to bind to the RVxF- accommodating groove of PP1 and, at the same time, to reach the active site of PP1 without any tension (Fig. 5A, green spheres; Fig. 5B, gray sticks). The pRb-Tat peptide was efficiently dephosphorylated by PP1 in vitro (Fig. 5C, V0 = 0.31 µM·min^-1). […] Addition of 1H4 at 3-fold molar excess (480 µM) over pRb-Tat (160 µM) inhibited pRb-Tat dephosphorylation and reduced the rate of dephosphorylation (Fig. 5C, V0 = 0.19 µM·min^−1) to the rate of pRb-Tat QACA dephosphorylation (Fig. 5C, V0 = 0.17 µM⋅min^−1). […] To further investigate the effect of 1H4 on the dephosphorylation of the pRb-Tat peptide, we analyzed the initial velocity versus pRb-Tat peptide substrate concentration plots. […] This was expected because the dephosphorylation site and the RVxF-containing sequence were fused into one hybrid substrate and 1H4 interferes with the binding of this substrate to PP1.
Figure 5 1H4 compound competes with RVxF motif. A. Superimposition of pRb-Tat peptide on the complex of PP1 with Spinophilin. PP1 surface is colored after the atom types. The spinophilin peptide is shown as magenta ribbon and the pRb-Tat peptide as orange ribbon. The Val25 and Phe27 residues of pRb-Tat and the Ile449 and Phe 451 residues of Spinophilin are shown as sticks. The 2-(N-morpholino)-ethanesulfonic acid bound in the active site of PP1 is shown in green spheres. The phosphorylated Ser6 residue of pRb-Tat peptide is shown as sticks. B. Phosphorylated Ser 6 residue binds to the active site of PP1. Comparative superimposition of pRb-Tat peptide over the crystal structure of MES bound in the active site of PP1. Catalytic resides are shown as sticks. MES is shown as green sticks, and the phosphorylated Ser6 residue of pRb-Tat peptide is shown as orange sticks. The pRb-Tat peptide is shown as orange ribbon. C. 1H4 inhibits kinetics of pRb-Tat peptide dephosphorylation by PP1α. Recombinant PP1α was assayed with pRb-Tat (WT or QACA mutant, 120 µM) in the absence or presence of 1H4 as indicated. The reactions were stopped at indicated time points and the phosphate release was quantified by malachite green assay. Initial velocity was calculated by linear regression in Prism. D. 1H4 inhibits kinetics of pRb-cdNIPP dephosphorylation by PP1α. Recombinant PP1α was assayed with pRb-cdNIPP1 in the absence or presence of 1H4 as indicated. Mutant pRb cdNIPP1 pA-RATA was used as negative control. The reactions were stopped at indicated time points and the phosphate release was quantified by malachite green assay. Initial velocity was calculated by linear regression in Prism. […] Initial rates of pRb-Tat peptide dephosphorylation by PP1α were assayed at the indicated concentrations of the substrate in the absence or presence of 300 µM 1H4 or non-HIV-1 inhibitory 1G3. The amount of the released phosphate was quantified with malachite green.
Malachite green dephosphorylation assays were carried out with the Ser/Thr phosphatase assay kit (Upstate, Lake Placid, NY) using recombinant PP1α (New England Biolabs, Ipswich, MA). […]

[3] = Trypan blue exclusion viability assay in CEM cells; type: cell-based; conditions: human, read-out: Cytotoxicity IC50 in CEM cells by trypan blue exclusion

SMILES: COCCNC(=O)COC(=O)c1c2c(nc3ccccc13)/C(=C/c1ccc(O)cc1)CCC2 [1H4]
- IC50 [1]: 5 µM
- Effect on and mode of inhibition of pRb-Tat dephosphorylation by PP1α ([2]; 300 µM compound, Lineweaver-Burk plot): competitive
- pRB-Tat VMAX ([2]; 300 µM compound, control 16.67, 25% of substrate assumed phosphorylated): 18.20
- V0 of pRb-cdNIPP1 dephosphorylation by PP1α in presence of compound ([2]; 1H4 added): 0.37 µM·min^-1 and 0.37 ± 0.01 µM·min^-1
- V0 of pRb-Tat dephosphorylation by PP1α in presence of compound ([2]; 1H4 at 3-fold molar excess (480 µM) over pRb-Tat (160 µM)): 0.19 µM·min^-1 and 0.19 ± 0.01 µM·min^-1
- IC50 at 24 h [3]: > 100 µM
